# ChEMBL document CHEMBL4130627, “Prodrugs of the Phosphoribosylated Forms of Hydroxypyrazinecarboxamide Pseudobase T-705 and Its De-Fluoro Analogue T-1105 as Potent Influenza Virus Inhibitors” (J Med Chem, 2018)
# The source made the active and inactive calls. No cut-off for these calls is given here.
# Assays:
# [1] = Stability of the compound in phosphate buffer at pH 7.3 after 30 hrs by RP-HPLC chromatogram analysis; assay type: physicochemical; conditions: pH 7.3, 30 h
# [2] = Cytotoxicity against MDCK cells assessed as change in cell morphology after 3 days by microscopic analysis; assay type: cell-based, Canis lupus familiaris; conditions: dog
# Influenza A virus [3] = assay: microbe, parasite or virus in culture; conditions: MDCK, 72 h
# Description: Antiviral activity against Influenza virus A/X-31 infected in MDCK cells assessed as reduction in viral replication at 3 days post infection by formazan-based MTS assay
# Liver carboxylesterase [4] = target: T1, Liver carboxylesterase (Sus scrofa, UniProt Q29550); assay: Drug metabolism assessed as pig liver esterase mediated 4-((((((2R,3S,4R,5R)-5-(3-carbamoyl-5-fluoro-2-oxopyrazin-1(2H)-yl)-3,4-dihydroxytetrahydrofuran-2-yl)methoxy)(hydroxy)phosphoryloxy)(hydroxy)[…])methyl)phenyl pentanoate formation at 450 uM after 2 hrs by RP-HPLC chromatogram analysis; assay type: ADME; conditions: isolated protein
# T1 sequence (Q29550 whole entry): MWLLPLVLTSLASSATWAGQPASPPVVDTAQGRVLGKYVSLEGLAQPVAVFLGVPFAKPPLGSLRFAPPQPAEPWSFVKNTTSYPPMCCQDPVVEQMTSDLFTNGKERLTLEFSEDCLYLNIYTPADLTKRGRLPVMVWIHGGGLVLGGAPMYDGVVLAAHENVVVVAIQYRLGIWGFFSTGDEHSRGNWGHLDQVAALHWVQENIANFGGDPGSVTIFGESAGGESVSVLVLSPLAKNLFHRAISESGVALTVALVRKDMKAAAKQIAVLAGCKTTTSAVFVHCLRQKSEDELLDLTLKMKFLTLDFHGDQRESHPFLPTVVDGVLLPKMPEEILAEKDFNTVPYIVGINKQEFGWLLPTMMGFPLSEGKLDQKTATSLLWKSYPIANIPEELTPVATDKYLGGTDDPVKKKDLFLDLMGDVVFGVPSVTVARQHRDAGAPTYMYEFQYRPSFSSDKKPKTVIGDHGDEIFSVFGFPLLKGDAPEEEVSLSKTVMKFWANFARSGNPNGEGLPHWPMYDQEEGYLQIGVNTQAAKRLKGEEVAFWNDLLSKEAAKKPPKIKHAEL
# Influenza B virus [5] = assay: microbe, parasite or virus in culture; conditions: Ned/537/05, MDCK, 72 h
# Description: Antiviral activity against Influenza virus B/Ned/537/05 infected in MDCK cells assessed as reduction in viral replication at 3 days post infection by formazan-based MTS assay
# Liver carboxylesterase [6] = target: T1, Liver carboxylesterase; assay: Prodrug activation assessed as pig liver esterase mediated metabolite formation after 30 hrs by RP-HPLC chromatogram analysis; assay type: ADME; conditions: isolated protein
# Influenza A virus [7] = assay: microbe, parasite or virus in culture; conditions: MDCK, 72 h; remark: listed apart in the source
# Description: Antiviral activity against Influenza virus A/X-31 infected in MDCK cells assessed as reduction in viral replication at 3 days post infection by microscopic analysis
# Influenza B virus [8] = assay: microbe, parasite or virus in culture; conditions: Ned/537/05, MDCK, 72 h; remark: listed apart in the source
# Description: Antiviral activity against Influenza virus B/Ned/537/05 infected in MDCK cells assessed as reduction in viral replication at 3 days post infection by microscopic analysis
# [9] = Cytotoxicity against MDCK cells assessed as reduction in cell viability after 3 days by formazan-based MTS assay; set-up: species or system Canis lupus familiaris; conditions: dog
# [10] = Cytotoxicity against HGPRT deficient 6-thioguanine-resistant MDCK cells assessed as change in cell morphology after 3 days by microscopic analysis; assay type: cell-based, Canis lupus familiaris; conditions: dog
# [11] = Prodrug activation in phosphate buffer at pH 7.3 assessed as metabolite formation after 30 hrs by RP-HPLC chromatogram analysis; assay type: physicochemical; conditions: pH 7.3, 30 h
# A549 = assay: Cytotoxicity against human A549 cells assessed as reduction in cell viability at 100 uM; assay type: cell-based; conditions: a549, 100 µM
# [12] = Inhibition of Influenza virus B/Ned/537/05 RNA dependent RNA polymerase using ApG primer [adenyl (3'-5') guanosine] and [8-3H]GTP after 1 hr by filter-based assay
# Influenza A virus [13] = assay type: functional, organism-based; conditions: Influenza A virus (A/X-31(H3N2)); MDCK; 25 uM
# MDCK [14] = assay: Prodrug activation in MDCK cells assessed as T-1105-RMP formation at 450 uM up to 4 hrs by RP-HPLC-UV analysis; assay type: cell-based, Canis lupus familiaris; conditions: dog
# [15] = Drug metabolism in MDCK cells assessed as 4-((((((2R,3S,4R,5R)-5-(3-carbamoyl-2-oxopyrazin-1(2H)-yl)-3,4-dihydroxytetrahydrofuran-2-yl)methoxy)(hydroxy)phosphoryloxy)(hydroxy)phosphoryloxy)methyl)phenyl decanoate formation at 450 uM up to 4 hrs by RP-HPLC-UV analysis; assay type: ADME, cell-based, Canis lupus familiaris; conditions: dog
# Influenza A virus [16] = assay type: functional, organism-based; conditions: Influenza A virus (A/X-31(H3N2)); MDCK; 6 uM
# MDCK [17] = assay: Prodrug activation in MDCK cells assessed as T-1105-RDP formation at 500 uM after 2 hrs by RP-HPLC-UV analysis; assay type: cell-based, Canis lupus familiaris; conditions: dog
# Influenza A virus [18] = assay type: functional, organism-based; conditions: Influenza A virus (A/X-31(H3N2)); MDCK; 12 to 25 uM
# MDCK [19] = assay: Prodrug activation in MDCK cells assessed as T-1105-RTP formation at 450 uM up to 4 hrs by RP-HPLC-UV analysis; assay type: cell-based, Canis lupus familiaris; conditions: dog
# [20] = tested on: unidentified influenza virus; assay: Potency index, ratio of T-1105 EC99 to compound EC99 for Influenza virus infected in human A549 cells; assay type: functional
# Influenza A virus [21] = assay type: functional, organism-based; conditions: Influenza A virus (A/X-31(H3N2)); MDCK; 25 uM; remark: listed apart in the source
# MDCK [22] = assay type: cell-based, Canis lupus familiaris; conditions: dog, 2 h, 500 µM
# [23] = tested on: unidentified influenza virus; assay: Antiviral activity against Influenza virus infected in human A549 cells; assay type: functional
# [24] = Prodrug activation in phosphate buffer at pH 7.3 assessed as half life for T-1105-RDP formation at 450 uM after 24 to 120 hrs by RP-HPLC-UV analysis; assay type: physicochemical; conditions: pH 7.3, 450 µM
# Influenza A virus [25] = assay type: functional, organism-based; conditions: Influenza A virus (A/X-31(H3N2)); MDCK; 25 uM; remark: listed apart in the source
# [26] = Drug metabolism in MDCK cells assessed as T-1105-RDP formation at 450 uM up to 4 hrs by RP-HPLC-UV analysis; assay type: ADME, cell-based, Canis lupus familiaris; conditions: dog
# [27] = Inhibition of Influenza virus A/X-31 RNA dependent RNA polymerase using ApG primer [adenyl (3'-5') guanosine] and [8-3H]GTP after 1 hr by filter-based assay; set-up: species or system Influenza A virus (A/X-31(H3N2))
# Liver carboxylesterase [28] = target: T1, Liver carboxylesterase; assay: Drug metabolism assessed as pig liver esterase mediated 4-((((((2R,3S,4R,5R)-5-(3-carbamoyl-2-oxopyrazin-1(2H)-yl)-3,4-dihydroxytetrahydrofuran-2-yl)methoxy)(hydroxy)phosphoryloxy)(hydroxy)phosphoryloxy)methyl)phenyl decanoate formation at 450 uM after 150 mins by RP-HPLC-UV analysis; assay type: ADME; conditions: isolated protein, 2.5 h
# Influenza A virus [29] = assay type: functional, organism-based; conditions: Influenza A virus (A/X-31(H3N2)); MDCK; 12 to 25 uM; remark: listed apart in the source
# Liver carboxylesterase [30] = target: T1, Liver carboxylesterase; assay: Prodrug activation assessed as pig liver esterase mediated metabolite formation at 450 uM up to 150 mins by RP-HPLC-UV analysis; assay type: ADME; conditions: isolated protein, 2.5 h
# [31] = Drug metabolism in MDCK cells assessed as T-1105-RTP formation at 465 uM during 15 hrs by RP-HPLC-UV analysis; assay type: ADME, cell-based, Canis lupus familiaris; conditions: dog
# [32] = target: Membrane-associated guanylate kinase, WW and PDZ domain-containing protein 1 (Homo sapiens) (UniProt Q96QZ7); assay: Inhibition of human recombinant guanylate kinase 1 mediated […] conversion at 25 to 400 uM preincubated for 10 mins followed by enzyme addition measured up to 60 mins by UV absorbance method
# Chain of Membrane-associated guanylate kinase, WW and PDZ domain-containing protein 1 (Homo sapiens) (Q96QZ7 whole entry, the tested form may be a part): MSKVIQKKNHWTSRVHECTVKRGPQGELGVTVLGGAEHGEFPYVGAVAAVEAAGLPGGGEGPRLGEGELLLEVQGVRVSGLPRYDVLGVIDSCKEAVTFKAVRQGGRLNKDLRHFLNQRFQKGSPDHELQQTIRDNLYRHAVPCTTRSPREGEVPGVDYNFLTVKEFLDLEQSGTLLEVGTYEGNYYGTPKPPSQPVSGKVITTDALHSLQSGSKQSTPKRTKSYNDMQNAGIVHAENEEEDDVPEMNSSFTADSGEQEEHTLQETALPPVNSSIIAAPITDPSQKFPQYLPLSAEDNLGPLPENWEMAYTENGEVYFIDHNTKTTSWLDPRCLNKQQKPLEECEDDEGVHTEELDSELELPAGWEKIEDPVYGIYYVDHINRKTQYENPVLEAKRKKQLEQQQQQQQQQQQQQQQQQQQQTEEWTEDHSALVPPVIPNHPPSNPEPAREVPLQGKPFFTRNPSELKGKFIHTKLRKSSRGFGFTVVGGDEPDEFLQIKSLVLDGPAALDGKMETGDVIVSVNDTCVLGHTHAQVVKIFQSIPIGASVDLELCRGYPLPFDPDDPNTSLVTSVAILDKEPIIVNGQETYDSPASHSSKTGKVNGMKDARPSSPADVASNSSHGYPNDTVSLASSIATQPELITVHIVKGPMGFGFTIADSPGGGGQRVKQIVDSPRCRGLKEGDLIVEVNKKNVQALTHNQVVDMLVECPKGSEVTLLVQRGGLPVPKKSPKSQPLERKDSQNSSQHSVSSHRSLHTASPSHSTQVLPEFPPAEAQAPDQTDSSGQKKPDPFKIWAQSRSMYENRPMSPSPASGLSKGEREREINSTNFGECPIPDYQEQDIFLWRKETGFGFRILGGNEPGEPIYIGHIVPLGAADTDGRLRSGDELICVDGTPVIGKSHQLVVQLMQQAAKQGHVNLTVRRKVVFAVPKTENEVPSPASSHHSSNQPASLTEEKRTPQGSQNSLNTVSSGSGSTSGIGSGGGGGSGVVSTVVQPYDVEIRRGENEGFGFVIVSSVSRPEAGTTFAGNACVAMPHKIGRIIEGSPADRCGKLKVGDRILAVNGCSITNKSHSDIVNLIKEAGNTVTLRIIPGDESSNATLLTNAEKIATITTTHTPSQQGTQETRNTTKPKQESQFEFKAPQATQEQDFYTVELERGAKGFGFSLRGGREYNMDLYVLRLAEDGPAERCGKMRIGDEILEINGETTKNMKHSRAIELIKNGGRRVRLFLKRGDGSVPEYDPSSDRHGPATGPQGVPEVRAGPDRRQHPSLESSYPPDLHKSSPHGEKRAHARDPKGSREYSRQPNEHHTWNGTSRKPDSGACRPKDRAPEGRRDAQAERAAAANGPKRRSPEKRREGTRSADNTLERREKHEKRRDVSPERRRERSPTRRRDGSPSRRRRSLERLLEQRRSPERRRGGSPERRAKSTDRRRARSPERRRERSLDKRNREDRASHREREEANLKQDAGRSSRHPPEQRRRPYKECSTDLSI
# [33] = Drug metabolism in MDCK cells assessed as T-1105-RDP formation at 465 uM during 15 hrs by RP-HPLC-UV analysis; assay type: ADME, cell-based, Canis lupus familiaris; conditions: dog
# Influenza A virus [34] = assay type: functional, organism-based; conditions: Influenza A virus (A/X-31(H3N2)); MDCK; 12 to 50 uM
# MDCK [35] = assay: Prodrug activation in MDCK cells assessed as parent compound remaining at 714 uM after 19 hrs by RP-HPLC-UV analysis; assay type: cell-based, Canis lupus familiaris; conditions: dog
# MDCK [36] = assay: Prodrug activation in MDCK cells assessed as T-1105-RMP formation at 714 uM after 19 hrs by RP-HPLC-UV analysis; assay type: cell-based, Canis lupus familiaris; conditions: dog
# MDCK [37] = assay type: cell-based, Canis lupus familiaris; conditions: dog, 714 µM
# Influenza A virus [38] = assay type: functional, organism-based; conditions: Influenza A virus (A/X-31(H3N2)); MDCK; 25 uM; remark: listed apart in the source
# Influenza A virus [39] = assay type: functional, organism-based; conditions: Influenza A virus (A/X-31(H3N2)); MDCK; 12 to 50 uM; remark: listed apart in the source
# Influenza A virus [40] = assay type: functional, organism-based; conditions: Influenza A virus (A/X-31(H3N2)); MDCK; 250 uM
# Influenza A virus [41] = assay type: functional, organism-based; conditions: Influenza A virus (A/X-31(H3N2)); MDCK; 250 uM; remark: listed apart in the source
smiles,measurement,setting,value
CCCCCCCCCCCCCCC(=O)Oc1ccc(COP(=O)(OCc2ccc(OC(=O)CCCC)cc2)OP(=O)(O)OC[C@H]2O[C@@H](n3cc(F)nc(C(N)=O)c3=O)[C@H](O)[C@@H]2O)cc1.CCN(CC)CC (stereo not given in full),Stability,[1],Unstable
same,MCC at 72 h,[2],21 µM
same,EC50,Influenza A virus [3],10 µM
same,Drug metabolism,Liver carboxylesterase [4],Metabolite_Detected
same,EC50,Influenza B virus [5],3.5 µM
same,Drug metabolism,Liver carboxylesterase [6],Metabolite_Notdetected
same,EC50,Influenza A virus [7],5.4 µM
same,EC50,Influenza B virus [8],7.2 µM
same,CC50 at 72 h,[9],35 µM
same,MCC at 72 h,[10],16 µM
same,Drug metabolism,[11],Metabolite_Notdetected
CCCCCCCCCC(=O)Oc1ccc(COP(=O)(OCc2ccc(OC(=O)CCCCCCCCC)cc2)OP(=O)(O)OC[C@H]2O[C@@H](n3ccnc(C(N)=O)c3=O)[C@H](O)[C@@H]2O)cc1.CCN(CC)CC,Activity,A549,Non-Toxic
same,IC50,[12],49 to 126 µM
same,MCC at 72 h,[2],37 µM
same,inhibition,Influenza A virus [13],Active
same,EC50,Influenza A virus [3],1 µM
same,Drug metabolism,MDCK [14],Metabolite_Detected
same,Drug metabolism,[15],Metabolite_Detected
same,inhibition,Influenza A virus [16],Active
same,Drug metabolism,MDCK [17],Metabolite_Detected
same,inhibition,Influenza A virus [18],Active
same,EC50,Influenza B virus [5],0.56 µM
same,Drug metabolism,MDCK [19],Metabolite_Notdetected
same,Ratio,[20],2
same,inhibition,Influenza A virus [21],inactive
same,Drug metabolism,MDCK [22],Metabolite_Detected
same,EC99,[23],72 µM
same,EC50,Influenza A virus [7],1.3 µM
same,t1/2,[24],30 h
same,EC50,Influenza B virus [8],0.81 µM
same,inhibition,Influenza A virus [25],inactive
same,CC50 at 72 h,[9],> 100 µM
same,Drug metabolism,[26],Metabolite_Detected
same,IC50,[27],49 to 126 µM
same,Drug metabolism,Liver carboxylesterase [28],Metabolite_Detected
same,MCC at 72 h,[10],22 µM
same,inhibition,Influenza A virus [29],Active
same,Drug metabolism,Liver carboxylesterase [30],Metabolite_Detected
NC(=O)c1nccn([C@@H]2O[C@H](COP(=O)(O)O)[C@@H](O)[C@H]2O)c1=O,Drug metabolism,[31],Metabolite_Notdetected
same,inhibition,[32],inactive
same,Drug metabolism,[33],Metabolite_Notdetected
NC(=O)c1nccnc1O,MCC at 72 h,[2],> 250 µM
same,inhibition,Influenza A virus [13],Active
same,inhibition,Influenza A virus [34],Active
same,EC50,Influenza A virus [3],5.4 µM
same,EC50,Influenza B virus [5],2.1 µM
same,Stability,MDCK [35],10%
same,Drug metabolism,MDCK [36],Metabolite_Detected
same,Drug metabolism,MDCK [37],Metabolite_Notdetected
same,inhibition,Influenza A virus [21],inactive
same,EC99,[23],134 µM
same,EC50,Influenza A virus [7],6.4 µM
same,inhibition,Influenza A virus [38],Active
same,EC50,Influenza B virus [8],2.8 µM
same,inhibition,Influenza A virus [25],inactive
same,CC50 at 72 h,[9],> 250 µM
same,MCC at 72 h,[10],> 250 µM
same,inhibition,Influenza A virus [39],Active
same,inhibition,Influenza A virus [40],Active
same,inhibition,Influenza A virus [41],Active
